Where two headings read alike, the source gives them in different places.
What was measured:
[1] = Plasma Cmin and Cmax of PI/NNRTI in HIV-positive women on cART (LC-MS/MS); assay type: in vivo, human; conditions: for Cmax at 2 h: female, human, oral, 400 mg, 2 hours post-dose
Experimental: Patients were asked to fast from midnight of the previous night. One hour before their scheduled morning dose the pre-dose blood collection was drawn (Cmin t) (alternative arrangements were made if the patient took their drugs in the evening). […] Concentrations of the PIs and the NNRTIs in plasma were measured simultaneously by sensitive and selective, validated high-performance liquid chromatography coupled to tandem mass-spectroscopy (LC-MS/MS). All samples were analyzed at the pharmacokinetic laboratory at the Ottawa Hospital Research Institute in Ottawa, Canada. The PK endpoints for each patient were determined by taking the median of the three weekly values for the Cmin and Cmax. The rationale for measuring drug levels at three separate time points was that there is potentially intra-individual variability in drug levels, especially for PIs. Using the median value for the endpoints eliminated outliers. The three drug level measurements allowed for the calculation of intra-patient variability. […] Next, for each subject the ratio of their median Cmin and Cmax for their main PI or NNRTI to this published drug level was calculated and used as the primary outcome as previously reported by Burger et al. […] Inter-patient variability of Cmin and Cmax for each antiretroviral drug was assessed by calculating the coefficient of variation (CV) using each individual’s median Cmin and Cmax. […] These values are summarized using median and IQR of the individual CVs. […] Finally, linear regression models were fit to assess correlates of the square root-transformed Cmin and Cmax ratios. […] The regression models included indicator variables to account for the different antiretroviral medications and each potential correlate was included separately in an adjusted model. Statistical analyses were performed using SAS Version 9.2 (SAS Institute, Cary, North Carolina, USA).

[2] = in vivo; cited from earlier work
[3] = historical HIV population, atazanavir 400 mg QD; cited from earlier work
[4] = HIV-positive women, all doses of the drug pooled
[5] = compared among the antiretrovirals

With `COC(=O)N[C@H](C(=O)N[C@@H](Cc1ccccc1)[C@@H](O)CN(Cc1ccc(-c2ccccn2)cc1)NC(=O)[C@@H](NC(=O)OC)C(C)(C)C)C(C)(C)C` [Atazanavir, atazanavir] the “Cmin Intra-patient CV median (IQR)” value ([1]; HIV-positive women, 3 weekly visits, 400 QD) was 57.4 (40.5-86.7), the “Cmax median ratio to historical population mean (IQR)” value ([1]; HIV-positive women, 400 QD) was 0.59 (0.31-0.94) and the “Cmax n (%) >1.5 Historical pop mean (percent of participants)” value ([1]; HIV-positive women, 400 QD) was 0 (0.0%). The “Cmin median ratio to historical population mean (IQR)” value ([1]; HIV-positive women, 400 QD) was 0.78 (0.35-1.37), the “Cmin n (%) >1.5 historical pop Mean (percent of participants)” value ([1]; HIV-positive women, 400 QD) was 2 (22.2%) and the “Cmax median ratio to historical population mean (IQR)” value [1, 4] was 0.65 (0.44-0.87). For the same compound, the “Cmax n (%) >1.5 Historical pop mean (percent of participants)” value [1, 4] was 0 (0.0%), the “Cmin median ratio to historical population mean (IQR)” value [1, 4] was 0.95 (0.53-1.42) and the “Cmin n (%) >1.5 historical pop Mean (percent of participants)” value [1, 4] was 6 (22.2%). The “Cmax Inter-patient CV” value ([1]; HIV-positive women, from individual median Cmax, 400 QD) was 57.3%, the “Cmin Inter-patient CV” value ([1]; HIV-positive women, from individual median Cmin, 400 QD) was 78.0% and the “Cmin Study participants median (IQR)” value ([1]; HIV-positive women, plasma, pre-dose, 400 mg QD, in ng/mL) was 214 (95–373). The “Cmin Mean (SD)” value ([1]; HIV-positive women, plasma, pre-dose, 400 QD, in ng/mL) was 250.4 (195.4), the “inter-patient variability, in words” value [1, 5] was “greatest observed inter-patient variability” and the “ratios of both Cmin and Cmax versus historical reference values, in words” value [1, 5] was “lowest ratios”. For the same compound, the Cmax at 2 h ([1]; plasma, HIV-positive women, plasma, 400 mg QD, read-out: Cmax Study participants median (IQR)) was 1870 ng/mL, the Cmax at 2 h ([1]; plasma, HIV-positive women, plasma, 400 QD, read-out: Cmax Mean (SD)) was 2000 ng/mL and the “Inter- and intra-patient variability, in words” value ([1]; particularly when not boosted with ritonavir) was “high”. For the same compound, the “increase in AUC in women” value [2] was “approximately 20%” and the Cmax Population mean [3] was 3150 ng/mL.
